Data published in patent US8906933B2, “Dihydropyrimidin-2(1H)-one compounds as neurokinin-3 receptor antagonists” (N30 Pharmaceuticals, Inc., priority 2010, dated 2014).

Legend:
[1] = molecular target: T1, human NK3 receptor (Homo sapiens (Human), UniProt P29371); test: Human NK3 receptor binding assay at 1 uM; details: 1 μM test compound; [3H]SR142801, CHO cell membranes; read-out: percent inhibition at 1 μM
Description: Antagonist activity was evaluated at a concentration of 1 μM for a representative subset of test compounds, and the results were expressed as the percent inhibition at that concentration.
Each test compound was evaluated at a single concentration of 1 μM. […] The results are expressed as a percent of control specific binding ((measured specific binding/control specific binding)×100) obtained in the presence of the test compounds.

[2] = molecular target: T1, human NK3 receptor; test: biochemical
[3] = molecular target: T1, human NK3 receptor; test: Human NK3 receptor binding assay at 10 μM; details: 10 μM test compound; [3H]SR142801, CHO cell membranes; read-out: percent inhibition at 10 μM
Description: Antagonist activity was evaluated at a concentration of 10 μM for a representative subset of test compounds, and the results were expressed as the percent inhibition at that concentration.
Each test compound was evaluated at a single concentration of 10 μM. […] The results are expressed as a percent of control specific binding ((measured specific binding/control specific binding)×100) obtained in the presence of the test compounds.

[4] = molecular target: GSNOR (Homo sapiens (Human), UniProt P11766); test: GSNOR IC50 (method in incorporated applications); format: biochemical
[5] = molecular target: T1, human NK3 receptor; test: Human neurokinin NK3 receptor antagonist effect (agonist-induced Ca2+ mobilization, CHO cells); format: cell-based; details: 10 uM; response to 1 nM [MePhe7]-NKB, CHO cells transfected with human NK3 receptor
Description: This model evaluates the antagonist activity of compounds in CHO cells transfected with the human NK3 receptor. Antagonist activity is determined by measuring the effect of compounds on agonist-induced cytosolic Ca^2+ ion mobilization using a fluorimetric detection method.
The cells are suspended in DMEM buffer (Invitrogen) supplemented with 0.1% FCS and distributed in 96-well microplates at a density of 3×10^4 cells/well. The fluorescent probe (Calcium4, Molecular Device) is mixed with probenicid in HBSS buffer plus 20 mM Hepes (pH 7.4) (Invitrogen) and added into each well. The probe is allowed to equilibrate with the cells for 60 minutes at 37° C. followed by a 15 minute incubation at 22° C. Thereafter, the assay plates are positioned in a microplate reader (CellLux, PerkinElmer) and the test compound, reference antagonist or HBSS buffer is added. 5 minutes later, 1 nM [MePhe^7]-NKB or HBSS buffer (basal control) is added, and changes in fluorescence intensity are measured.
The standard reference antagonist is SB 222200, which is tested in each experiment at several concentrations to generate a concentration-response curve from which an IC50 value can be calculated.

[6] = molecular target: T1, human NK3 receptor; test: Human neurokinin NK3 receptor agonist effect (Ca2+ mobilization, CHO cells); format: cell-based; details: highest tested concentration; CHO cells transfected with human NK3 receptor
Description: This model evaluates the agonist activity of compounds in CHO cells transfected with the human NK3 receptor. Agonist activity is determined by measuring the effect of compounds on cytosolic Ca^2+ ion mobilization using a fluorimetric detection method.
The transfected CHO cells are suspended in DMEM buffer (Invitrogen) supplemented with 0.1% FCS, then distributed in 96-well microplates at a density of 3×10^4 cells/well. The fluorescent probe (Calcium4, Molecular Device) is mixed with probenicid in HBSS buffer plus 20 mM Hepes (pH 7.4) (Invitrogen) and added into each well. The probe is allowed to equilibrate with the cells for 60 minutes at 37° C. followed by a 15 minute incubation at 22° C. Thereafter, the assay plates are positioned in a microplate reader (CellLux, PerkinElmer) and the test compound, reference agonist or HBSS buffer (basal control) is added. Changes in fluorescence intensity, which varies proportionally to the free cytosolic Ca^2+ ion concentration, are then measured. For stimulated control measurements, [MePhe^7]-NKB at 10 nM is added in separate assay wells, and the results are expressed as a percent of the control response to 10 nM [MePhe^7]-NKB.
The standard reference agonist is [MePhe^7]-NKB, which is tested in each experiment at several concentrations to generate a concentration-response curve from which an EC50 value can be calculated.

T1 sequence (P29371 whole entry): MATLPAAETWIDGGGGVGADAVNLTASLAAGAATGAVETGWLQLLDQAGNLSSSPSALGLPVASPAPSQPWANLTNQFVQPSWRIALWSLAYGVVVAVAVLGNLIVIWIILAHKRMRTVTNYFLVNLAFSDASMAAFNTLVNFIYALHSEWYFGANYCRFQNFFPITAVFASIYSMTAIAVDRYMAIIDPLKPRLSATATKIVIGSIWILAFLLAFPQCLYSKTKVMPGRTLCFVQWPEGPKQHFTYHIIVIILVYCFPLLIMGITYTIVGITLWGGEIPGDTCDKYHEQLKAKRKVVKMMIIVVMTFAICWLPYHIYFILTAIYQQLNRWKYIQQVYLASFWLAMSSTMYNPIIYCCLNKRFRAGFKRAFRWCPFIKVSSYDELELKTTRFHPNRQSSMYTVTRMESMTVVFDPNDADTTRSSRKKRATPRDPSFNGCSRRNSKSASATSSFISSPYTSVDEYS
GSNOR, sequence (P11766 whole entry): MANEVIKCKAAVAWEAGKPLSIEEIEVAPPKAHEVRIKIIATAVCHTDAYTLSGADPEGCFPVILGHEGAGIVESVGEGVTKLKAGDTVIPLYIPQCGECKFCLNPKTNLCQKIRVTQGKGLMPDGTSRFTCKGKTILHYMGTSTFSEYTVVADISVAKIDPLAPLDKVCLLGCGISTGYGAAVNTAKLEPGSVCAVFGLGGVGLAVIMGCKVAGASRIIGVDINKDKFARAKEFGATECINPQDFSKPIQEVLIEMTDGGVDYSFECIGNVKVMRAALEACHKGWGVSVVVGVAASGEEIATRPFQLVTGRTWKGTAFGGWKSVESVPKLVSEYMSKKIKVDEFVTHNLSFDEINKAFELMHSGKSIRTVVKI

SMILES | inhibition at 1 µM [1] [%] | IC50 [2] [nM] | other results
Cn1cc(C2=C(c3ccsc3)C(c3ccc(C(=O)O)c(O)c3)NC(=O)N2)cn1 (racemic) [2-hydroxy-4-(6-(1-methyl-1H-pyrazol-4-yl)-2-oxo-5-(thiophen-3-yl)-1,2,3,4-tetrahydropyrimidin-4-yl)benzoic acid] |  |  | IC50 [4]: 39 nM
CCOc1cc([C@@H]2NC(=O)NC(c3ccccc3)=C2c2ccsc2)cc([N+](=O)[O-])c1O [4-(3-ethoxy-4-hydroxy-5-nitrophenyl)-6-phenyl-5-(thiophen-3-yl)-3,4-dihydropyrimidin-2(1H)-one] |  | 22000 | 
CCOc1cc([C@H]2NC(=O)NC(c3ccccc3)=C2c2ccsc2)cc([N+](=O)[O-])c1O [(R)-4-(3-ethoxy-4-hydroxy-5-nitrophenyl)-6-phenyl-5-(thiophen-3-yl)-3,4-dihydropyrimidin-2(1H)-one] |  | 1400 | 
CCOc1cc([C@@H]2NC(=O)NC(c3cccnc3)=C2c2ccccc2)cc([N+](=O)[O-])c1O [4-(3-ethoxy-4-hydroxy-5-nitrophenyl)-5-phenyl-6-(pyridin-3-yl)-3,4-dihydropyrimidin-2(1H)-one] |  | 55000 | 
Cn1cc(C2=C(c3ccsc3)[C@H](c3ccc(C(=O)O)c(O)c3)NC(=O)N2)cn1 [2-hydroxy-4-(6-(1-methyl-1H-pyrazol-4-yl)-2-oxo-5-(thiophen-3-yl)-1,2,3,4-tetrahydropyrimidin-4-yl)benzoic acid] |  |  | IC50 [4]: 23 nM
CCOc1cc(C2C(c3ccccc3)=C(c3ccccc3)NC(=O)N2C)cc([N+](=O)[O-])c1O (stereo not shown) [4-(3-ethoxy-4-hydroxy-5-nitrophenyl)-3-methyl-5,6-diphenyl-3,4-dihydropyrimidin-2(1H)-one] | > 50 | ≤ 1000 | 

More lines, main results first:

inhibition at 1 µM [1] [%] | IC50 [2] [nM] | SMILES | other results
> 50 | ≤ 1000 | CCOc1cc(C2NC(=O)NC(c3ccccc3)=C2c2ccccc2)cc2oc(=O)[nH]c12 (stereo not shown) [4-ethoxy-6-(2-oxo-5,6-diphenyl-1,2,3,4-tetrahydropyrimidin-4-yl)benzo[d]oxazol-2(3H)-one] | 
> 50 | ≤ 1000 | CCOc1cc(C2NC(=O)NC(c3ccccc3)=C2c2cccc(Cl)c2)cc([N+](=O)[O-])c1O (stereo not shown) [5-(3-chlorophenyl)-4-(3-ethoxy-4-hydroxy-5-nitrophenyl)-6-phenyl-3,4-dihydropyrimidin-2(1H)-one] | 
> 50 | ≤ 1000 | CCOc1cc(C2NC(=O)N(C)C(c3ccccc3)=C2c2ccccc2)cc([N+](=O)[O-])c1O (stereo not shown) [4-(3-ethoxy-4-hydroxy-5-nitrophenyl)-1-methyl-5,6-diphenyl-3,4-dihydropyrimidin-2(1H)-one] | 
> 50 | ≤ 1000 | CCOc1cc(C2NC(=O)NC(c3ccccc3)=C2c2ccccc2)cc(C#N)c1O (stereo not shown) [3-ethoxy-2-hydroxy-5-(2-oxo-5,6-diphenyl-1,2,3,4-tetrahydropyrimidin-4-yl)benzonitrile] | inhibition at 10 µM [3]: > 50%
> 50 | ≤ 100 | CCOc1cc(C2C(c3ccccc3)=C(c3ccccc3)N(C)C(=O)N2C)cc([N+](=O)[O-])c1O (stereo not shown) [4-(3-ethoxy-4-hydroxy-5-nitrophenyl)-1,3-dimethyl-5,6-diphenyl-3,4-dihydropyrimidin-2(1H)-one] | 
> 50 | ≤ 1000 | CCOc1cc(C2NC(=O)NC(c3ccccc3)=C2c2cccc(C)c2)cc([N+](=O)[O-])c1O (stereo not shown) [4-(3-ethoxy-4-hydroxy-5-nitrophenyl)-6-phenyl-5-m-tolyl-3,4-dihydropyrimidin-2(1H)-one] | 
> 50 | ≤ 100 | CCOc1cc(C2NC(=O)NC(c3ccccc3)=C2C2CCCCC2)cc([N+](=O)[O-])c1O (stereo not shown) [5-cyclohexyl-4-(3-ethoxy-4-hydroxy-5-nitrophenyl)-6-phenyl-3,4-dihydropyrimidin-2(1H)-one] | inhibition at 10 µM [3]: > 50%; antagonist effect [5]: antagonist effect was seen; agonist effect [6]: no effect was seen
